Test results taken from US8338465B2, “Cyclic carboxylic acid rhodanine derivatives for the treatment and prevention of tuberculosis” (priority 2006, dated 2012).

Target: T1, dihydrolipoamide acyltransferase (DlaT) (Mycobacterium tuberculosis, UniProt P9WIS7)
T1 sequence (P9WIS7 1-553): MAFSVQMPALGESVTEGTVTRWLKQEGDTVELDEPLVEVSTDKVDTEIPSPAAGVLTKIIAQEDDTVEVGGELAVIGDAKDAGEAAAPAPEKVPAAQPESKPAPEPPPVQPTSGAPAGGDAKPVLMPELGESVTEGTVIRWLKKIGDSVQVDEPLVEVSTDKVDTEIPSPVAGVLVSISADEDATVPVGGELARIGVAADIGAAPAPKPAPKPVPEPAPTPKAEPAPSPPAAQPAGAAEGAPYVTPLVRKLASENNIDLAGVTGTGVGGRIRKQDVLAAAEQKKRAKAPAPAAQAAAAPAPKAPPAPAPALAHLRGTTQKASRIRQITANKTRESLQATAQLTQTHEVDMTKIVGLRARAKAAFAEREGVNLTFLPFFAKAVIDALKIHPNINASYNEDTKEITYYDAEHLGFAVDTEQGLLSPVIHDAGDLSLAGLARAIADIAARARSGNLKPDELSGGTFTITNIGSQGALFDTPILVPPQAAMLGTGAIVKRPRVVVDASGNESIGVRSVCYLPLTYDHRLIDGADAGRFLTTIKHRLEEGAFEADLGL
Test: DlaT inhibition (Dlat IC50); DTNB peroxidase assay with Lpd, DlaT and AhpD
Format: biochemical
Conditions: Dlat IC50 category

Row | Structure (SMILES) | IC50
1 | CCCc1ccc(-c2ccc(C=C3SC(=S)N(C4CCCC(C(=O)O)C4)C3=O)o2)cc1 (stereo not shown) [Compound C79, 3-{5-[1-[5-(4-propyl-phenyl)-furan-2-yl]-methylidene]-4-oxo-2-thioxo-thiazolidin-3-yl}-cyclohexanecarboxylic acid] | 11 to 40 µM
2 | CCCc1ccc(-c2ccc(C=C3SC(=S)N(C4CCC(C(=O)O)CC4)C3=O)o2)cc1 (stereo not shown) [Compound C80, 4-{5-[1-[5-(4-propyl-phenyl)-furan-2-yl]-methylidene]-4-oxo-2-thioxo-thiazolidin-3-yl}-cyclohexanecarboxylic acid] | 11 to 40 µM
3 | CNS(=O)(=O)c1ccc(-c2ccc(C=C3SC(=S)N(C4CCCC(C(=O)O)C4)C3=O)o2)cc1 (stereo not shown) [Compound C83, 3-{5-[5-(4-Methylsulfamoyl-phenyl)-furan-2-ylmethylene]-4-oxo-2-thioxo-thiazolidin-3-yl}-cyclohexanecarboxylic acid] | 11 to 40 µM
4 | CNS(=O)(=O)c1ccc(-c2ccc(C=C3SC(=S)N(C4CCC(C(=O)O)CC4)C3=O)o2)cc1 (stereo not shown) [Compound C84, 4-{5-[5-(4-Methylsulfamoyl-phenyl)-furan-2-ylmethylene]-4-oxo-2-thioxo-thiazolidin-3-yl}-cyclohexanecarboxylic acid] | < 10 µM
5 | CN(C)S(=O)(=O)c1ccc(-c2ccc(C=C3SC(=S)N(C4CCCC(C(=O)O)C4)C3=O)o2)cc1 (stereo not shown) [Compound C85, 3-{5-[5-(4-Dimethylsulfamoyl-phenyl)-furan-2-ylmethylene]-4-oxo-2-thioxo-thiazolidin-3-yl}-cyclohexanecarboxylic acid] | 41 to 80 µM
6 | CN(C)S(=O)(=O)c1ccc(-c2ccc(C=C3SC(=S)N(C4CCC(C(=O)O)CC4)C3=O)o2)cc1 (stereo not shown) [Compound C86, 4-{5-[5-(4-Dimethylsulfamoyl-phenyl)-furan-2-ylmethylene]-4-oxo-2-thioxo-thiazolidin-3-yl}-cyclohexanecarboxylic acid] | 11 to 40 µM
7 | O=C(O)c1ccccc1NN1C(=O)C(=Cc2ccc(-c3ccccc3Cl)o2)SC1=S [Compound D1, 2-{5-[1-[5-(2-chloro-phenyl)-furan-2-yl]-methylidene]-4-oxo-2-thioxo-thiazolidin-3-ylamino}-benzoic acid] | < 10 µM
8 | O=C(O)c1ccccc1NN1C(=O)C(=Cc2ccc(-c3cccc(C(F)(F)F)c3)o2)SC1=S [Compound D3, 2-{4-oxo-2-thioxo-5-[1-[5-(3-trifluoromethyl-phenyl)-furan-2-yl]-methylidene]-thiazolidin-3-ylamino}-benzoic acid] | < 10 µM
9 | O=C(O)c1ccccc1NN1C(=O)C(=Cc2ccc(-c3cccc([N+](=O)[O-])c3)o2)SC1=S [Compound D4, 2-{5-[1-[5-(3-nitro-phenyl)-furan-2-yl]-methylidene]-4-oxo-2-thioxo-thiazolidin-3-ylamino}-benzoic acid] | < 10 µM
10 | CC(C)(C)c1ccc(O)c(-c2ccc(C=C3SC(=S)N(Nc4ccccc4C(=O)O)C3=O)o2)c1 [Compound D5, 2-{5-[1-[5-(5-tert-butyl-2-hydroxy-phenyl)-furan-2-yl]-methylidene]-4-oxo-2-thioxo-thiazolidin-3-ylamino}-benzoic acid] | < 10 µM
11 | O=C(O)c1ccccc1NN1C(=O)C(=Cc2ccc(-c3ccc(F)cc3F)o2)SC1=S [Compound D7, 2-{5-[1-[5-(2,4-difluoro-phenyl)-furan-2-yl]-methylidene]-4-oxo-2-thioxo-thiazolidin-3-ylamino}-benzoic acid] | < 10 µM
12 | Cc1ccc(-c2ccc(C=C3SC(=S)N(Nc4ccccc4C(=O)O)C3=O)o2)c(C)c1 [Compound D8, 2-{5-[1-[5-(2,4-dimethyl-phenyl)-furan-2-yl]-methylidene]-4-oxo-2-thioxo-thiazolidin-3-ylamino}-benzoic acid] | < 10 µM
13 | COc1ccc(-c2ccc(C=C3SC(=S)N(Nc4ccccc4C(=O)O)C3=O)o2)c(C)c1 [Compound D9, 2-{5-[1-[5-(4-methoxy-2-methyl-phenyl)-furan-2-yl]-methylidene]-4-oxo-2-thioxo-thiazolidin-3-ylamino}-benzoic acid] | < 10 µM
14 | Cc1cc(F)ccc1-c1ccc(C=C2SC(=S)N(Nc3ccccc3C(=O)O)C2=O)o1 [Compound D10, 2-{5-[1-[5-(4-fluoro-2-methyl-phenyl)-furan-2-yl]-methylidene]-4-oxo-2-thioxo-thiazolidin-3-ylamino}-benzoic acid] | < 10 µM
15 | Cc1ccc(-c2ccc(C=C3SC(=S)N(Nc4ccccc4C(=O)O)C3=O)o2)c(F)c1 [Compound D11, 2-{5-[1-[5-(2-fluoro-4-methyl-phenyl)-furan-2-yl]-methylidene]-4-oxo-2-thioxo-thiazolidin-3-ylamino}-benzoic acid] | < 10 µM
16 | O=C(O)c1ccccc1NN1C(=O)C(=Cc2ccc(-c3ccccc3O)o2)SC1=S [Compound D12, 2-{5-[1-[5-(2-Hydroxy-phenyl)-furan-2-yl]-methylidene]-4-oxo-2-thioxo-thiazolidin-3-ylamino}-benzoic acid] | < 10 µM

Row | Structure (SMILES) | IC50
17 | Cc1ccc(-c2ccc(C=C3SC(=S)N(Nc4ccccc4C(=O)O)C3=O)o2)cc1 [Compound D13, 2-{4-oxo-2-thioxo-5-[1-(5-p-tolyl-furan-2-yl)-methylidene]-thiazolidin-3-ylamino}-benzoic acid] | < 10 µM
18 | COc1ccc(-c2ccc(C=C3SC(=S)N(Nc4ccccc4C(=O)O)C3=O)o2)cc1 [Compound D14, 2-{5-[1-[5-(4-methoxy-phenyl)-furan-2-yl]-methylidene]-4-oxo-2-thioxo-thiazolidin-3-ylamino}-benzoic acid] | < 10 µM
19 | Cc1ccccc1-c1cccc(C=C2SC(=S)N(Nc3ccccc3C(=O)O)C2=O)n1 [Compound D15, 2-[4-Oxo-2-thioxo-5-(6-o-tolyl-pyridin-2-ylmethylene)-thiazolidin-3-ylamino]-benzoic acid] | 11 to 40 µM
20 | O=C(O)c1cccc(NN2C(=O)C(=Cc3ccc(-c4ccccc4Cl)o3)SC2=S)c1 [Compound D16, 3-{5-[1-[5-(2-chloro-phenyl)-furan-2-yl]-methylidene]-4-oxo-2-thioxo-thiazolidin-3-ylamino}-benzoic acid] | < 10 µM
21 | O=C(O)c1cccc(NN2C(=O)C(=Cc3ccc(-c4cccc(C(F)(F)F)c4)o3)SC2=S)c1 [Compound D17, 3-{5-[1-[5-(3-trifluoromethyl-phenyl)-furan-2-yl]-methylidene]-4-oxo-2-thioxo-thiazolidin-3-ylamino}-benzoic acid] | < 10 µM
22 | O=C(O)c1cccc(NN2C(=O)C(=Cc3ccc(-c4ccc(Cl)cc4)o3)SC2=S)c1 [Compound D18, 3-{5-[1-[5-(4-chloro-phenyl)-furan-2-yl]-methylidene]-4-oxo-2-thioxo-thiazolidin-3-ylamino}-benzoic acid] | < 10 µM
23 | COc1ccc(-c2ccc(C=C3SC(=S)N(Nc4ccccc4C(=O)O)C3=O)o2)c(OC)c1 [Compound D19, 2-{5-[1-[5-(2,4-dimethoxy-phenyl)-furan-2-yl]-methylidene]-4-oxo-2-thioxo-thiazolidin-3-ylamino}-benzoic acid] | < 10 µM
24 | O=C(O)c1ccc(NN2C(=O)C(=Cc3ccc(-c4ccccc4Cl)o3)SC2=S)cc1 [Compound D20, 4-{5-[5-(2-Chloro-phenyl)-furan-2-ylmethylene]-4-oxo-2-thioxo-thiazolidin-3-ylamino}-benzoic acid] | 11 to 40 µM
25 | O=C(O)c1ccc(NN2C(=O)C(=Cc3ccc(-c4ccc(Cl)cc4)o3)SC2=S)cc1 [Compound D21, 4-{5-[5-(4-Chloro-phenyl)-furan-2-ylmethylene]-4-oxo-2-thioxo-thiazolidin-3-ylamino}-benzoic acid] | < 10 µM
26 | O=C(O)c1ccccc1NN1C(=O)C(=Cc2ccc(-c3ccc4[nH]ccc4c3)o2)SC1=S [Compound D22, 2-{5-[5-(1H-Indol-5-yl)-furan-2-ylmethylene]-4-oxo-2-thioxo-thiazolidin-3-ylamino}-benzoic acid] | < 10 µM
27 | Cc1cc(Cl)ccc1-c1ccc(C=C2SC(=S)N(Nc3ccccc3C(=O)O)C2=O)o1 [Compound D23, 2-{5-[1-[5-(4-chloro-2-methyl-phenyl)-furan-2-yl]-methylidene]-4-oxo-2-thioxo-thiazolidin-3-ylamino}-benzoic acid] | < 10 µM
28 | Cc1cccc(C)c1-c1ccc(C=C2SC(=S)N(Nc3ccccc3C(=O)O)C2=O)o1 [Compound D24, 2-{5-[5-(2,6-Dimethyl-phenyl)-furan-2-ylmethylene]-4-oxo-2-thioxo-thiazolidin-3-ylamino}-benzoic acid] | < 10 µM
29 | COc1cc(F)ccc1-c1ccc(C=C2SC(=S)N(Nc3ccccc3C(=O)O)C2=O)o1 [Compound D25, 2-{5-[1-[5-(4-fluoro-2-methoxy-phenyl)-furan-2-yl]-methylidene]-4-oxo-2-thioxo-thiazolidin-3-ylamino}-benzoic acid] | < 10 µM
30 | COc1ccc(-c2ccc(C=C3SC(=S)N(Nc4ccccc4C(=O)O)C3=O)o2)cc1F [Compound D26, 2-{5-[1-[5-(3-fluoro-4-methoxy-phenyl)-furan-2-yl]-methylidene]-4-oxo-2-thioxo-thiazolidin-3-ylamino}-benzoic acid] | < 10 µM
31 | O=C(O)c1ccccc1NN1C(=O)C(=Cc2ccc(-c3ccccc3OCc3ccccc3)o2)SC1=S [Compound D27, 2-{5-[1-[5-(2-benzyloxy-phenyl)-furan-2-yl]-methylidene]-4-oxo-2-thioxo-thiazolidin-3-ylamino}-benzoic acid] | 11 to 40 µM
